IC50 data for one compound are collected here from BindingDB's records for doi:10.1074/jbc.M600168200 (Duke University Medical Center, 2006).

Assay [1] addresses Geranylgeranyl transferase type-1 subunit beta [A2V]/Protein farnesyltransferase/geranylgeranyltransferase type-1 subunit alpha (Homo sapiens, UniProt P49354+P53609, A2V). The experiment in a line: In Vitro FTase/GGTase-1 Inhibition Assay. Conditions: pH 7.7; 30 °C. The procedure:
(§1) Compounds were tested as inhibitors of FTase or GGTase-1 in vitro using purified recombinant mammalian enzymes to catalyze the reactions between [3H] FPP or [3H]GGPP, and recombinant protein substrates. Incorporation of radiolabeled isoprenoid into Ras protein substrate was quantitated by precipitation of total protein with acid and scintillation counting. The inhibitory activity of the compounds is reported as an IC50 value, the concentration of inhibitor required to reduce radiolabel incorporation by 50% compared with an uninhibited control experiment.

Assay [2] deals with Protein farnesyltransferase subunit beta/geranylgeranyltransferase type-1 subunit alpha (Homo sapiens, UniProt P49354+P49356). The assay is described as follows: In Vitro FTase/GGTase-1 Inhibition Assay. Conditions: pH 7.7; 30 °C. Here is the method: as §1

Molecules are shown by their SMILES.

Chain of Geranylgeranyl transferase type-1 subunit beta [A2V]/Protein farnesyltransferase/geranylgeranyltransferase type-1 subunit alpha (P53609 whole entry A2V, other chains not shown): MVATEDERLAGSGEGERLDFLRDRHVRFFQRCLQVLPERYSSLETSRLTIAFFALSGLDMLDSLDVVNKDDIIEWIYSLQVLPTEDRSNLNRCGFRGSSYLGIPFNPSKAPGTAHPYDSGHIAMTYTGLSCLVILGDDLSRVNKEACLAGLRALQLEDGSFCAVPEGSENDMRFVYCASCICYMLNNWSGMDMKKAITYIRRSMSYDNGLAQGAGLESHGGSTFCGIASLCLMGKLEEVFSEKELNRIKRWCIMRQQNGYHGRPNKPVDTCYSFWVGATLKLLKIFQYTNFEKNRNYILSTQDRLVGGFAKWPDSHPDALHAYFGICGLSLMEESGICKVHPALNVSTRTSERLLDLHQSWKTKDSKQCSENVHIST

What is called IC50 is the concentration needed to halve the response being measured. Low readings indicate inhibition by little substance, high ones a need for much substance. As to `CSCCc1c(-c2cccnc2)nn(-c2ccc(Cl)c(Cl)c2)c1OCCCC(=O)N[C@@H](Cc1ccccc1)C(N)=O` [N-[(S)-1-carbamoyl-2-phenylethyl]-4-[2-(3,4-di-chlorophenyl)-4-(2-methylsulfanylethyl)-5-pyridin-3-yl-2-H-pyrazol-3-yloxy]butyramide], the values for the concentration for half-maximal inhibition (IC50) in assay [1] and in assay [2] were 8.24 nM and more than 2000 nM, respectively.
